Measurements published in the supplement of paper PMC11208160.

Assay: recombinant UMI read abundance after kanamycin selection (control-corrected) (log10(CPM+1)); higher = more efficient recombination; extreme values may be limits of the assay; sequences stand for … in AGTGCAGAGAAAATCGGCCAGTTTTCTCTGCCTGCAGTCCGCATGCCGTGGGACCCCTTGGGTTCTAACCTGTTGCCTAGATTTATGCAGCGGACTGCCTTTCTCCCAAAGTGATAAACCGG…AGGTTGGTTTCACT; site = the 11-nt donor
Procedure, shortened: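 Sequencing read counts were converted to CPM, averaged over two replicates and scaled by control-derived factors. Results are given as log10(CPM+1). The reads covered the donor–target junction of recombinant UMIs from a pooled Escherichia coli screen of donor and donor-binding-loop pairs for the IS621 bridge recombinase.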
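Further: IS621 bridge recombinase in Escherichia coli cells against a fixed T5 target plasmid.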

Sequence | recombinant UMI read abundance (log10)
CGGAATCCATGGACCGGTTTTCCCGGTAATCCGTATTTGTT (site CGGGATCCTAG) | 0
CGGAATCCATGGACCGGTTTTCCCGGTAATCCGTATTTGTT (site CGGGATCCTTA) | 0.00923
CGGAATCCATGGACCGGTTTTCCCGGTAATCCGTATTTGTT (site CGGGATTCTAA) | 0
CGGAATCCATGGACCGGTTTTCCCGGTAATCCGTATTTGTT (site CGGGTTCCTAA) | 0.0107
CGGAATCCATGGACCGGTTTTCCCGGTAATCCGTATTTGTT (site CGGTAGCCTAA) | 0.0806
CGGAATCCATGGACCGGTTTTCCCGGTAATCCGTATTTGTT (site CGGTATACTAA) | 0.0163
CGGAATCCATGGACCGGTTTTCCCGGTAATCCGTATTTGTT (site CGGTATCCTAA) | 0.107
CGGAATCCATGGACCGGTTTTCCCGGTAATCCGTATTTGTT (site CGGTATCCTAT) | 0
CGGAATCCATGGACCGGTTTTCCCGGTAATCCGTATTTGTT (site CGGTATCCTGA) | 0
CGGAATCCATGGACCGGTTTTCCCGGTAATCCGTATTTGTT (site CGGTGTCCTAA) | 0.0136
CGGAATCCATGGACCGGTTTTCCCGGTAATCCGTATTTGTT (site CGTAAGCCTAA) | 0.0106
CGGAATCCATGGACCGGTTTTCCCGGTAATCCGTATTTGTT (site CGTAATACTAA) | 0.00407
CGGAATCCATGGACCGGTTTTCCCGGTAATCCGTATTTGTT (site CGTAATCCTAA) | 0.0103
CGGAATCCATGGACCGGTTTTCCCGGTAATCCGTATTTGTT (site CGTAATCCTAT) | 0
CGGAATCCATGGACCGGTTTTCCCGGTAATCCGTATTTGTT (site CGTAATCCTGA) | 0
CGGAATCCATGGACCGGTTTTCCCGGTAATCCGTATTTGTT (site CGTAGTCCTAA) | 0.00941
CGGAATCCATGGACCGGTTTTCCCGGTAATCCGTATTTGTT (site CGTTATCCTAA) | 0.00294
CGGAATCCATGGACCGGTTTTCCCGGTAATCCGTATTTGTT (site CTCAATCCTAA) | 0
CGGAATCCATGGACCGGTTTTCCCGGTAATCCGTATTTGTT (site CTGAACCCTAA) | 0.0207

Sequence | recombinant UMI read abundance (log10)
CGGAATCCATGGACCGGTTTTCCCGGTAATCCGTATTTGTT (site CTGAATCCTAA) | 0.0031
CGGAATCCATGGACCGGTTTTCCCGGTAATCCGTATTTGTT (site CTGAATCCTAC) | 0
CGGAATCCATGGACCGGTTTTCCCGGTAATCCGTATTTGTT (site CTGAATCCTCA) | 0.0195
CGGAATCCATGGACCGGTTTTCCCGGTAATCCGTATTTGTT (site CTGAATGCTAA) | 0.00589
CGGAATCCATGGACCGGTTTTCCCGGTAATCCGTATTTGTT (site CTGACTCCTAA) | 0.00378
CGGAATCCATGGACCGGTTTTCCCGGTAATCCGTATTTGTT (site CTGCATCCTAA) | 0.0146
CGGAATCCATGGACCGGTTTTCCCGGTAATCCGTATTTGTT (site GAGAATCCTAA) | 0.00637
CGGAATCCATGGACCGGTTTTCCCGGTAATCCGTATTTGTT (site GGGAAGCCTAA) | 0.0234
CGGAATCCATGGACCGGTTTTCCCGGTAATCCGTATTTGTT (site GGGAATACTAA) | 0
CGGAATCCATGGACCGGTTTTCCCGGTAATCCGTATTTGTT (site GGGAATCCTAA) | 0
CGGAATCCATGGACCGGTTTTCCCGGTAATCCGTATTTGTT (site GGGAATCCTAT) | 0
CGGAATCCATGGACCGGTTTTCCCGGTAATCCGTATTTGTT (site GGGAATCCTGA) | 0
CGGAATCCATGGACCGGTTTTCCCGGTAATCCGTATTTGTT (site GGGAGTCCTAA) | 0.00491
CGGAATCCATGGACCGGTTTTCCCGGTAATCCGTATTTGTT (site GGGTATCCTAA) | 0
CGGAATCCATGGACCGGTTTTCCCGGTAATCCGTATTTGTT (site GGTAATCCTAA) | 0
CGGAATCCATGGACCGGTTTTCCCGGTAATCCGTATTTGTT (site TGCAATCCTAA) | 0.0105
CGGAATCCATGGACCGGTTTTCCCGGTAATCCGTATTTGTT (site TGGAACCCTAA) | 0.0136
CGGAATCCATGGACCGGTTTTCCCGGTAATCCGTATTTGTT (site TGGAATCCTAA) | 0
